Key:
Assay type in all cases: in vivo, human
[1] = tested on: ASD patient with obsessive thoughts and compulsive behaviors; test: Case study demonstrating reduction of obsessions and compulsions (SUBJECT); settings: L1-79 100-200 mg three times per day
From the text: An ASD patient (SUBJECT) has a history of obsessive thoughts and compulsive behaviors that negatively impact their functioning. […]

[2] = tested on: patients diagnosed with Autistic Spectrum Disorder and one or more of Obsessive Compulsive Disorder and Attention Deficit/Hyperactivity Disorder; test: Double blinded, placebo controlled dose ranging study of L1-79 in autism: obsessive-compulsive symptoms (case studies)
Procedure: (§1) Study Title: A Double Blinded, Randomized, Placebo Controlled, Dose Ranging Study for the use of L1-79 in the Treatment of Autism
(§2) Study Design: Blinded, randomized, 4-arm, 4-week treatment period. Treatment arms consist of α-methyl-DL-tyrosine (i.e., L1-79) in doses of 100 mg, or 200 mg, or placebo tid.
(§3) Sample Size:N=30; randomized and 10 open label to 4 groups:
(§4) Study Population: Male subjects between the ages of 13 and 21 years of age, diagnosed with autism who that meet the entry criteria and who are able to complete standardized measures allowing them to participate in this study.
(§5) Major Inclusion Criteria: Males between 13 and 21 years of age, signed informed consent, normal clinical laboratory values, DSM-5 compliant diagnosis of autism spectrum disorder, confirmed by the Autistic Diagnosis Interview Review (ADIR), and by the Autism Diagnosis Observation Schedule (ADOS) score consistent with a diagnosis of autism. No more than one concomitant medication, stable concomitant medications for at least 2 weeks prior to enrollment and no planned changes in psychosocial interventions during the trial.
(§6) Major Exclusion Criteria: Any co-morbidities, including Fragile-X syndrome, epilepsy, Retts syndrome, ADHD, or other disease or syndrome aside from autism that requires treatment. Any other psychiatric disorder, or out of range lab values. DSM-5 diagnosis of schizophrenia, schizoaffective disorder, alcohol use disorder; active medical problems: unstable seizures (>2 in past month), significant physical illness;
(§7) Experimental Treatment: L1-79 at doses of 100 or 200 mg three times daily for 4 weeks.
(§8) Dosage and Administration: L1-79 or placebo, as randomized, were administered orally according to the regimen above.
(§9) Evaluation Schedule: Subjects were evaluated within one week prior to study accession, and weekly throughout the dosing period, and again 4 weeks after the cessation of treatment.
(§10) Study Endpoints: The primary end point was an assessment of the safety of L1-79 based upon reported adverse events and changes in baseline in physical examination parameters that included orthostatic blood pressure, clinical laboratory measures, and ECGs. Secondary endpoints will include the attending physicians assessment as quantified by the Clinical Global Impressions scale based upon changes from baseline in various psychometric tests, including the Vineland Adaptive Behavior Scale 2nd edition (VABS II, VABS) questionnaire, the Autism Diagnostic Observation Schedule (ADOS), the Aberrant Behavior Checklist-Community (ABC-C), the Spencer Anxiety Scale (SAS), the Repetitive Behavior Score-Revised (RBS-R), the Social Responsiveness Scale (SRS), as well as from their personal observations in the clinic, and from videographic information taken during ADOS testing (per this protocol) and anecdotally as provided by caregivers over the course of this study.
Obsessive-compulsive symptoms can include ritualistic and repetitive/restricted behaviors, and obsessive thinking make it difficult for the patient to complete a task or concentrate in a conversation.
All of the patients were receiving L1-79 100-200 mg three times a day. None of the patients in the OCD symptom improvement group were receiving medication for Obsessive Compulsive Disorder
Obsessive-compulsive symptoms were initially recorded at baseline, and at end of active treatment using the Repetitive Behavior Scale, the Spence Children's’ Anxiety Scale, the Social Responsiveness Scale, the Clinical Global Impression Scale and direct parent report.

[3] = tested on: patients diagnosed with Autistic Spectrum Disorder and one or more of Social Anxiety Disorder and Generalized Anxiety Disorder; test: Double blinded, placebo controlled dose ranging study of L1-79 in autism: social anxiety symptoms (case studies); settings: for SRS/DSM-5 Social Communication scale range after treatment: after 4 weeks on L1-79
Procedure: as §1, §2, §3, §4, §5, §6, §7, §8, §9, §10
Social anxiety symptoms included one or more of fear associated with meeting and talking to people, avoidance of social situations that would elicit significant anxiety in the past, anxiety in anticipation of a social situation, and an inability to initiate conversation with others. The presence of the social anxiety symptoms was recorded at baseline using the Aberrant Behavior Checklist-Community, the Spence Children's Anxiety Scale, the Social Responsiveness Scale, and/or the Clinical Global Impression Scale and direct parent report.
All of the patients were receiving L1-79 100-200 mg three times a day. None of the patients in the Social Anxiety symptom improvement group were receiving medication for Social Anxiety Disorder

## CC(N)(Cc1ccc(O)cc1)C(=O)O (racemic) [L1-79, α-methyl-DL-tyrosine]
[1]
  compulsive behaviors/routines: could be delayed or skipped
  obsessive thoughts: significant decrease in obsessive thoughts
  rigid and inflexible thinking: decrease in rigid and inflexible thinking
[2]; ASD patients with OCD and/or ADHD, L1-79 100-200 mg three times a day
  obsessive-compulsive symptoms: reductions in obsessive-compulsive symptoms
[2]; Subject 02-002, baseline 96 (Severe), after treatment Moderate, L1-79 100-200 mg tid
  SRS/DSM-5 Repetitive Behavior and Restrictive Interests score after treatment: 73
[2]; Subject 02-003, baseline Severe, week 4, L1-79 100-200 mg tid
  SRS/DSM-5 Repetitive Behavior and Restrictive Interests range after treatment: Moderate
[2]; Subject 02-004, L1-79 100-200 mg tid
  CGI-I, Stereotypic and Restricted Interests section: Much Improved
[2]; Subject 02-007, baseline 3.0 (anxiety disordered children), 0 = normal/no OCD, L1-79 100-200 mg tid
  Spence Children's Anxiety Scale OCD score after treatment: 0
[2]; Subject 02-007, baseline Moderate, L1-79 100-200 mg tid
  SRS/DSM-5 subscale Repetitive Behaviors and Restricted Interests range after treatment: Within Normal Limits
[2]; Subject 02-012, L1-79 100-200 mg tid
  CGI-I score (OCD symptoms): Much Improved
[2]; Subject 02-012, baseline 80 (Severe), after treatment Within Normal Limits, L1-79 100-200 mg tid
  SRS/DSM-5 Repetitive Behavior and Restrictive Interests score after treatment: 46
[2]; Subject 02-16, baseline 65 (Mild), after treatment Within Normal Limits, L1-79 100-200 mg tid
  SRS/DSM-5 Repetitive Behavior and Restrictive Interests score after treatment: 46
[2]; Subject 02-16, baseline Mildly Ill, L1-79 100-200 mg tid
  CGI-Severity scale, Stereotyped Behaviors and Restricted Interests, after treatment: Normal
[2]; Subject 02-020, baseline 85 (Severe), after treatment Moderate, L1-79 100-200 mg tid
  SRS/DSM-5 Repetitive Behavior and Restrictive Interests score after treatment: 73
[2]; one patient who could talk only about their obsessive interest at baseline, after 4 weeks on active drug
  obsessive interest / preoccupation in conversation: able to have conversations about things of interest to others
[2]; one patient with self-injurious compulsive behaviors at baseline, after 3 weeks on active drug
  self-injurious compulsive behaviors: completely stopped self-injury
[2]; patients with OCD or SAD in the L1-79 autism study, 100 or 200 mg tid, 4 weeks, oral
  anxiety-related symptoms: improved anxiety-related symptoms
[3]; ASD patients with SAD and/or GAD, L1-79 100-200 mg three times a day
  social-anxiety symptoms: reductions in social-anxiety symptoms
[3]; Subject 02-002, baseline 98%, L1-79 100-200 mg tid
  ABC-C Social Withdrawal after treatment: 75%
[3]; Subject 02-002, baseline Severe
  SRS/DSM-5 Social Communication scale range after treatment: Moderate
[3]; Subject 02-002, week 4
  CGI-I, Social Interaction and Communication: Much Improved
[3]; Subject 02-007, baseline 75%, week 4 of treatment
  ABC-C Social Withdrawal after treatment: < 40%
[3]; Subject 02-009, baseline 91%, week 4 of treatment with L1-79
  ABC-C Social Withdrawal after treatment: 63%
[3]; Subject 02-012, baseline 84%, L1-79 100-200 mg tid
  ABC-C Social Withdrawal after treatment: < 40%
[3]; Subject 02-012, baseline Moderately Ill
  CGI-Severity Score after treatment: Borderline Ill
[3]; Subject 02-012, baseline Severe
  SRS/DSM-5 Social Communication scale range after treatment: Within Normal Limits
[3]; Subject 02-012, week 4
  CGI-I, Social Interaction and Communication: Much Improved
[3]; Subject 02-014, L1-79 100-200 mg tid
  CGI-I, Social Interactions and Communication area: Much Improved
[3]; Subject 02-014, baseline Markedly Ill
  CGI-Severity score, Social Interaction area, after treatment: Moderately Ill
[3]; Subject 02-016, baseline Mildly Deficient
  SRS/DSM-5 Social Communication scale range after treatment: Within Normal Limits
[3]; Subject 02-016, baseline Mildly Ill
  CGI-Severity Score, Social Interaction and Communication, after treatment: Normal
[3]; Subject 02-016, week 4
  CGI-I, Social Interaction and Communication: Much Improved
[3]; Subject 02-022, week 4 of treatment with L1-79
  CGI-I, Social Interaction and Communication: Much Improved
